{"source": "patent US6693217B2", "about": "“Antimalarial N,N′-substituted biguanides derived from hydroxylamines” (Jacobus Pharmaceutical Co., Inc., priority 2001, dated 2004)", "key": {"[1]": {"test": "Toxicity: testis weight/body weight after 106 days of drug treated feed", "conditions": "for Mean values for testes: Left, % body wt / Mean values for testes: Right, % body wt.: male CD-1 mice, 8-mice groups, drug treated feed 106 days (300 ppm first 79 days, 600 ppm days 80-106); for Mean values for testes: Left, % body wt: control 0.30; for Mean values for testes: Right, % body wt.: control 0.31; for Testis damage / observable pathology: organs examined for pathology after 106 days of drug treated feed; for Decrease in testis weight/body weight: after 106 days of drug treated feed", "source_text": "Male CD-1 mice were fed drug treated feed for 106 days. For the first 79 days the drug level was 300 ppm and then 600 ppm for days 80-106. The animals were then sacrificed and the organs were both weighed and examined for pathology."}, "[2]": {"conditions": "cited from earlier work"}, "[3]": {"tested_on": "P. berghei", "conditions": "administered orally to mice infected with P. berghei; cited from earlier work"}, "[4]": {"tested_on": "multidrug-resistant P. falciparum", "conditions": "administered orally to Aotus monkeys; cited from earlier work"}, "[5]": {"tested_on": "drug-resistant clones of P. falciparum", "conditions": "cited from earlier work; for In vitro activity relative to comparator: drug-resistant clones of P. falciparum"}, "[6]": {"conditions": "in vivo"}, "[7]": {"tested_on": "Plasmodium berghei", "test": "Comparison of antimalarial activity of analogs of PS-15 in infected mice (Table III)", "assay_type": "in vivo", "conditions": "orally bid on days 3, 4, 5 in HEC Tween, infection control 08.0", "source_text": "Mice were infected with Plasmodium berghei on day 0 and the drugs were mixed in HEC Tween and given orally bid on days 3, 4, and 5 post infection. Blood films were taken on day 6 and twice weekly thereafter until day 30."}, "[8]": {"tested_on": "Plasmodium berghei (KBG-173 strain)", "test": "In vivo antimalarial activity, modified Thompson Test (Table II)", "parameters": "species or system Charles River CD-1 mice", "conditions": "bid on days 3, 4, 5; for Average days Survival: 31 day experiment; for 6 day Parasetemia: % of red blood cells infected", "experimental": "In vivo^1 antimalarial activity was tested in male or female Charles River CD-1 mice that were 4-5 weeks old and weighed 20-25 g. They were housed in groups of 3 or 4 in standard plastic cages with wire tops, bed-o-cob® bedding, 12 hr/day of light, and maintained at 75° F. They were fed a standard Ralston Purina mouse chow and the cages and water bottles were changed twice a week. Test compounds were ground in a mortar and pestle and diluted with enough vehicle to give a volume of 10 mL/kg of mouse weight. The oral doses were prepared in 0.5% hydroxyethylcellulose-0.1% Tween-80. The amount of drug was calculated on the free base weight. The mice were infected intraperitoneally on day 0 with 5×10^4 erythrocytes parasitized with Plasmodium berghei (KBG-173 strain) from a donor mouse having a parasitemia between 5-10%. On days 3, 4, 5 the test compounds were administered bid, spaced 6 h apart, to mice. Smears were made from tail blood on day +6 and twice a week thereafter. The smears were stained with Geimsa and examined microscopically. Parasitemias are reported as the % of the red blood cells that are infected. On day 6 the (suppression of) parasitemias of treated animals may be compared to the parasitemias of infected non-treated controls, but these infected non-treated controls die on days 7-12. Activity was also measured by survival. Full activity is defined as all animals living at day 31. Partial activity is defined as days of increased survival versus the infected non-treated controls.\n^1This in vivo model is a modification of the Thompson Test. For further description see Ager, A. L., Jr. Rodent Malaria Models. In Handbook of Experimental Pharmacology: Antimalarial Drugs. I. 68/1; Peters, W., Richards, W. H. G., Eds.: Springer-Verlag: Berlin, 1984, pp. 231-33."}}, "note": "“And” between values parts separate entries of the source, which are not always exact repeats. Equal entries are not always repeated. Structures can show the parent of a compound that is named as a salt. Marks after values point to notes of the source that are not given here."}
{"compound": "CC(C)NC(=N)NC(=N)NOCCCOc1ccc(Cl)cc1Cl", "note": "[2,4-Dichloro]", "values": [{"measurement": "Mean values for testes: Left, % body wt", "setting": "[1]", "result": 0.19, "unit": "% body wt"}, {"measurement": "Mean values for testes: Right, % body wt.", "setting": "[1]", "result": 0.20, "unit": "% body wt."}]}
{"compound": "CC(C)NC(=N)NC(=N)NOCCCOc1ccc(F)c(F)c1", "note": "[3,4-Difluoro]", "values": [{"measurement": "Mean values for testes: Left, % body wt", "setting": "[1]", "result": 0.21, "unit": "% body wt"}, {"measurement": "Mean values for testes: Right, % body wt.", "setting": "[1]", "result": 0.23, "unit": "% body wt."}]}
{"compound": "CC(C)NC(=N)NC(=N)NOCCCOc1cc(Cl)c(Cl)cc1Cl", "note": "[PS-15, N-[3-(2,4,5-trichlorophenoxy)propyloxy]-N′-(1-methylethyl)imidodicarbonimidediamide hydrochloride, reference compound]", "values": [{"measurement": "Metabolism in vivo", "setting": "[2]", "result": "metabolized in vivo to WR99210"}, {"measurement": "Activity relative to proguanil", "setting": "[3]", "result": "more active"}, {"measurement": "Toxicity relative to proguanil", "setting": "[3]", "result": "less toxic than proguanil"}, {"measurement": "Activity relative to proguanil or WR99210", "setting": "[4]", "result": "more active than either proquanil or WR99210"}, {"measurement": "Activity against drug-resistant Plasmodium falciparum", "setting": "[5]; as described by Canfield et al. 1993", "result": "significant activity"}, {"measurement": "In vitro activity relative to comparator", "setting": "[5]", "result": "more active than proguanil"}, {"measurement": "Cross-resistance with other inhibitors of DHFR", "setting": "[5]; versus pyrimethamine and cycloguanil", "result": "not cross-resistant"}, {"measurement": "Testicular toxicity", "setting": "[6]", "result": "caused testicular toxicity"}, {"measurement": "AVG. DAY OF DEATH", "setting": "[7]; 16 MK/KG/DAY", "result": 15.1, "unit": "days"}, {"measurement": "AVG. DAY OF DEATH", "setting": "[7]; 32 MK/KG/DAY", "result": 15.7, "unit": "days"}, {"measurement": "AVG. DAY OF DEATH", "setting": "[7]; 64 MK/KG/DAY", "result": 17.0, "unit": "days"}, {"measurement": "Average days Survival", "setting": "[8]; 16 mg/kg oral, hydrochloride", "result": "14.1 days and 15.1 days and 14.6 days and 13.6 days"}, {"measurement": "6 day Parasetemia", "setting": "[8]; 16 mg/kg oral, hydrochloride", "result": "1.8% and 2.7% and 1.94% and 1.1%"}, {"measurement": "Average days Survival", "setting": "[8]; 32 mg/kg oral, hydrochloride", "result": "15.9 days and 17.8 days and 12.8 days and 21.8 days"}, {"measurement": "6 day Parasetemia", "setting": "[8]; 32 mg/kg oral, hydrochloride", "result": "0% and 0.006% and 0.01%"}, {"measurement": "Average days Survival", "setting": "[8]; 64 mg/kg oral, hydrochloride", "result": ">24.7 days and >31* days"}, {"measurement": "6 day Parasetemia", "setting": "[8]; 64 mg/kg oral", "result": 0, "unit": "%"}, {"measurement": "Mean values for testes: Left, % body wt", "setting": "[1]", "result": 0.21, "unit": "% body wt"}, {"measurement": "Mean values for testes: Right, % body wt.", "setting": "[1]", "result": 0.22, "unit": "% body wt."}, {"measurement": "Testis damage / observable pathology", "setting": "[1]", "result": "Testis damage was found"}]}
{"compound": "CC(C)NC(=N)NC(=N)NOCCCOc1ccc(Cl)c(Cl)c1", "note": "[PS-26, 1-[3-(3,4-dichlorophenoxy)propyloxy]-5-isopropylbiguanide(hemisuccinate)]", "values": [{"measurement": "AVG. DAY OF DEATH", "setting": "[7]; 16 MK/KG/DAY", "result": 16.6, "unit": "days"}, {"measurement": "AVG. DAY OF DEATH", "setting": "[7]; 32 MK/KG/DAY", "result": 15.5, "unit": "days"}, {"measurement": "Average days Survival", "setting": "[8]; 16 mg/kg oral", "result": "15.7 days and 16.6 days and 16.0 days"}, {"measurement": "6 day Parasetemia", "setting": "[8]; 16 mg/kg oral", "result": "0% and 0.006%"}, {"measurement": "Average days Survival", "setting": "[8]; 32 mg/kg oral", "result": ">29.3 days and >31 days"}, {"measurement": "6 day Parasetemia", "setting": "[8]; 32 mg/kg oral", "result": 0, "unit": "%"}, {"measurement": "Average days Survival", "setting": "[8]; 64 mg/kg oral", "result": ">31* days"}, {"measurement": "6 day Parasetemia", "setting": "[8]; 64 mg/kg oral", "result": 0, "unit": "%"}, {"measurement": "Decrease in testis weight/body weight", "setting": "[1]", "result": "no decrease in testis weight/body weight"}, {"measurement": "Mean values for testes: Left, % body wt", "setting": "[1]", "result": 0.29, "unit": "% body wt"}, {"measurement": "Mean values for testes: Right, % body wt.", "setting": "[1]", "result": 0.32, "unit": "% body wt."}, {"measurement": "Testis damage / observable pathology", "setting": "[1]", "result": "minimal to no observable pathology"}]}
{"compound": "CC(C)NC(=N)NC(=N)NOCCCOc1ccc(Cl)cc1", "note": "[PS-33, 1-[3-(4-chlorophenoxy)propyloxy]-5-isopropylbiguanide(hemisuccinate)]", "values": [{"measurement": "AVG. DAY OF DEATH", "setting": "[7]; 16 MK/KG/DAY", "result": 16.0, "unit": "days"}, {"measurement": "AVG. DAY OF DEATH", "setting": "[7]; 32 MK/KG/DAY", "result": 19.5, "unit": "days"}, {"measurement": "AVG. DAY OF DEATH", "setting": "[7]; 64 MK/KG/DAY", "result": 29.0, "unit": "days"}, {"measurement": "Average days Survival", "setting": "[8]; 16 mg/kg oral", "result": "14.1 days and 15.1 days and 14.6 days and 13.6 days"}, {"measurement": "6 day Parasetemia", "setting": "[8]; 16 mg/kg oral", "result": "1.8% and 2.7% and 1.94% and 1.1%"}, {"measurement": "Average days Survival", "setting": "[8]; 32 mg/kg oral", "result": "21.8 days and 15.9 days and 17.8 days and 12.8 days"}, {"measurement": "6 day Parasetemia", "setting": "[8]; 32 mg/kg oral", "result": "0.01% and 0% and 0.006%"}, {"measurement": "Average days Survival", "setting": "[8]; 64 mg/kg oral", "result": ">31* days and >24.7 days"}, {"measurement": "6 day Parasetemia", "setting": "[8]; 64 mg/kg oral", "result": 0, "unit": "%"}, {"measurement": "Decrease in testis weight/body weight", "setting": "[1]", "result": "no decrease in testis weight/body weight"}, {"measurement": "Mean values for testes: Left, % body wt", "setting": "[1]", "result": 0.27, "unit": "% body wt"}, {"measurement": "Mean values for testes: Right, % body wt.", "setting": "[1]", "result": 0.36, "unit": "% body wt."}, {"measurement": "Testis damage / observable pathology", "setting": "[1]", "result": "minimal to no observable pathology"}]}
{"compound": "CC1(C)N=C(N)N=C(N)N1OCCCOc1cc(Cl)c(Cl)cc1Cl", "note": "[WR99210]", "values": [{"measurement": "In vitro activity relative to comparator", "setting": "[5]", "result": "ten thousand times more active than the proquanil metabolite cycloguanil"}]}
